Data from the SangsterLogP compilation.

| SMILES | logP |
| --- | --- |
| Cc1ccc(C)c(C)c1 | 3.91 |
| CCCc1ccccc1C | 4.5 |
| CCc1ccccc1C | 3.86 |
| CCc1cccc(C)c1C | 4.34 |
| CCCc1ccc(C)cc1 | 4.6 |
| Cc1ccc(C)cc1 | 3.42 |
| CC(C)Cc1ccccc1 | 4.68 |
| CCc1cccc(C)c1 | 3.98 |
| Cc1cccc(C)c1C | 3.78 |
| CCc1c(C)cccc1C | 4.28 |

Results, then the compound that gave them:

| logP | SMILES |
| --- | --- |
| 4 | CCc1ccc(C)cc1 |
| 4.38 | Cc1ccccc1C(C)C |
| 4.5 | Cc1cccc(C(C)C)c1 |
| 4.43 | CCc1cc(C)ccc1C |
| 4.55 | CCc1cc(C)cc(C)c1 |
| 4.5 | CCc1ccc(C)c(C)c1 |
| 4.47 | CCc1ccc(C)cc1C |
| 7.11 | CCCCCCCCCc1ccccc1 |
| 4.67 | CCCc1cccc(C)c1 |
| 4.57 | CCC(C)c1ccccc1 (stereo not given) |
